According to patent publication US20130030012A1, “COMPOUNDS” (Glaxo Group Limited, priority 2011, published 2013):
Structures can show the parent of a compound that is named as a salt. Where two headings read alike, the source gives them in different places.

Tests used:
[1] = biological target: T1, recombinant human Lp-PLA2 (Homo sapiens, UniProt Q13093); assay: Recombinant human Lp-PLA2 assay (rhLp-PLA2, PED6 assay); type: biochemical; conditions: upper limit for pIC50 in this assay is 9.3
T1 sequence (Q13093 22-441): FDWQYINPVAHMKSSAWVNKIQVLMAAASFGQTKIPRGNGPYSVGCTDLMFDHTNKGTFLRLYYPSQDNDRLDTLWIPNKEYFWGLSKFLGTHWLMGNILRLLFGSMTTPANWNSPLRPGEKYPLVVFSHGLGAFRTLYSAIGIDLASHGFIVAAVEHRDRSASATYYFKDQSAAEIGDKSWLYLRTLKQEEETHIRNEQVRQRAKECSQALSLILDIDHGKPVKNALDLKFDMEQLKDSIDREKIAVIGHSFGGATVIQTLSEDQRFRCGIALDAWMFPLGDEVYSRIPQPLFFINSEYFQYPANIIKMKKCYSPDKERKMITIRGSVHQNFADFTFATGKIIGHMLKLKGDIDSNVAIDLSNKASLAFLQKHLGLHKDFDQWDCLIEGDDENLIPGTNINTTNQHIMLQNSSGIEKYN
Description: (1) Recombinant Human Lp-PLA2 Assay (rhLp-PLA2) (Also Referred to as “PED6” Assay)
N-((6-(2,4-dinitrophenyl)amino)-hexanoyl)-2-(4,4-difluoro-5,7-dimethyl-4-bora-3a,4a-diaza-s-indacene-3-pentanoyl)-1-hexadecanoyl-sn-glycero-3-phosphoethanolamine, triethylammonium salt (PED6) is a commercially available fluorescently-labeled phospholipid, which is commercially available from Invitrogene and Molecular Probes. There is a quenching […] and a Bodipy fluorescein (FL) group in the sn2 position. Upon cleavage with Lp-PLA2, the Bodipy FL group is liberated and then may result in an increase in fluorescence. Inhibitors of Lp-PLA2 therefore prevent this cleavage and no fluorescent increase is observed.
The PED6 assay was run as an unquenched 10 μL assay. The source plate containing the compounds to be tested was prepared by making 1:3 (by volume) serial dilution of the compounds within DMSO on 384-well microplate. Then, 0.01 μL of the compounds on compound source plate were transferred into 384 well Greiner 784076 (black) plates using ECHO liquid dispenser. 5 μL of recombinant human Lp-PLA2 enzyme (4 nM (or 110 pM) rhLp-PLA2 in assay buffer of 50 mM HEPES, pH 7.4, 150 mM NaCl, 1 mM CHAPS) was added to each well of the plate. Plates were centrifuged for 10 sec at 500 rpm. After 30 minutes preincubation, 5 μL of substrate ([…] (or 5 μM) PED6 [from 5 mM DMSO stock] in assay buffer of 50 mM HEPES, pH 7.4, 150 mM NaCl, 1 mM CHAPS) was added to 384 well Greiner 784076 (black) plates. Plates were centrifuged for 10 sec at 500 rpm. The plate was covered to protect it from light and incubated for 20 min at room temperature. The plates were read for fluorescence intensity at ex: 480/em: 540 using ViewLux microplate imager for Envision spectrofluoroimeters pIC50 data, curve and QC analysis was conducted by using XL fit module in Excel.
The compounds described below were tested generally according to the PED6 assay described above.

Lp-PLA2 in human plasma = biological target: T2, Lp-PLA2 in human plasma (Homo sapiens, UniProt Q13093); assay: Lp-PLA2 human plasma assay (Thio-PAF assay); type: biochemical; conditions: pooled human plasma; read-out: pIC50 values in the thio-PAF assay (converted)
T2 construct: from tissue; host or cells: pooled human plasma
T2 sequence (Q13093 22-441): T1 sequence (Q13093 22-441)
Description: The human plasma assay utilizes a thioester analog of PAF (phosphatidylcholine), where hydrolysis yields to the formation of a phospholipid containing a free thiol group. The amount of thiol is quantitated continuously by reacting with CPM (7-diethylamino-3-(4′-maleimidylphenyl)-4-methylcoumarin), a maleimide which increases in fluoresence after Michael addition of thiols. This assay may detect the activity of Lp-PLA2 in human plasma, as determined by specific inhibition by Lp-PLA2 inhibitors.
The thio-PAF assay was run as a quenched 15 μL assay. Compounds source plate was prepared by making 1:3 (by volume) serial dilution of the compounds into pure DMSO on 384-well microplate. 0.01 μL of compounds on compound source plate were transferred to 384 well Greiner 784076 (black) low-volume plates by ECHO liquid dispenser. 8 μL pooled human plasma, which was previously aliquoted and frozen, was added. Plates were centrifuged for 10 sec at 500 rpm. After 30 minutes preincubation, 2 μL of substrate solution comprising 2.5 mM 2-thio-PAF [from ethanol stock], […] CPM [from a DMSO stock] and 3.2 mM NEM (N-ethylmaleimide) [made fresh daily in DMSO] in assay buffer of 50 mM HEPES, pH 7.4, 150 mM NaCl, 1 mM CHAPS was added to 384 well Greiner 784076 (black) low-volume plates by BRAVO liquid handling station. After 2 mins, reaction was quenched with 5 μL of 5% aqueous trifluoroacetic acid (TFA). Plates were covered to protect from light and incubated for 40 min at room temperature. Plates were read at ex: 380/em: 485 using—Envision microplate reader. pIC50 data, curve and QC analysis was conducted by using XLFit module in Excel.

[2] = read-out: pIC50 values in the PED6 assay (converted)
[3] = Table 1, read-out: rhLp-PLA2 (PED6 assay) (pIC50) (converted)

Structure (SMILES)	IC50 [1, 2] [nM]	IC50 (Lp-PLA2 in human plasma) [nM]	IC50 [1, 3] [nM]
CN1CCCn2c1cc(OCc1ccc(Oc3cccc(C(F)(F)F)c3)c(C#N)c1)nc2=O [Example 1, 5-(((1-methyl-6-oxo-2,3,4,6-tetrahydro-1H-pyrimido[1,6-a]pyrimidin-8-yl)oxy)methyl)-2-(3-(trifluoromethyl)phenoxy)benzonitrile]	≤ 10	≤ 100	
CN1CCCn2c1cc(OCc1ccc(Oc3ccc(C(F)(F)F)cn3)c(C#N)c1)nc2=O [Example 2, 5-(((1-methyl-6-oxo-2,3,4,6-tetrahydro-1H-pyrimido[1,6-a]pyrimidin-8-yl)oxy)methyl)-2-((5-(trifluoromethyl)pyridin-2-yl)oxy)benzonitrile]	≤ 10	≤ 100	2.51
CN1CCCn2c1cc(OCc1cc(F)c(Oc3ccc(C(F)(F)F)nc3)c(F)c1)nc2=O [Example 3, 8-((3,5-difluoro-4-((6-(trifluoromethyl)pyridin-3-yl)oxy)benzyl)oxy)-1-methyl-3,4-dihydro-1H-pyrimido[1,6-a]pyrimidin-6(2H)-one]	≤ 1	≤ 100	1
CN1CCCn2c1cc(OCc1ccc(Oc3ccc(C(F)(F)F)nc3)c(F)c1)nc2=O [Example 4, 8-((3-fluoro-4-((6-(trifluoromethyl)pyridin-3-yl)oxy)benzyl)oxy)-1-methyl-3,4-dihydro-1H-pyrimido[1,6-a]pyrimidin-6(2H)-one]	≤ 10	≤ 100	
CN1CCCn2c1cc(OCc1ccc(Oc3ccc(Cl)c(C(F)(F)F)c3)cc1)nc2=O [Example 6, 8-((4-(4-chloro-3-(trifluoromethyl)phenoxy)benzyl)oxy)-1-methyl-3,4-dihydro-1H-pyrimido[1,6-a]pyrimidin-6(2H)-one]	≤ 10	≤ 1000	
CN1CCCn2c1cc(NCCc1ccc(Oc3ccc(Cl)c(C(F)(F)F)c3)cc1)nc2=O [Example 9, 8-((4-(4-chloro-3-(trifluoromethyl)phenoxy)phenethyl)amino)-1-methyl-3,4-dihydro-1H-pyrimido[1,6-a]pyrimidin-6(2H)-one, trifluoroacetic acid salt]		≤ 1000	
CN1CCCn2c1cc(OCc1ccc(Oc3ccc(F)c(C(F)(F)F)c3)c(F)c1)nc2=O [Example 13, 8-((3-fluoro-4-(4-fluoro-3-(trifluoromethyl)phenoxy)benzyl)oxy)-1-methyl-3,4-dihydro-1H-pyrimido[1,6-a]pyrimidin-6(2H)-one]	≤ 10	≤ 100	
CN1CCCn2c1cc(OCc1ccc(Oc3cncnc3)c(C#N)c1)nc2=O [Example 86, 5-(((1-methyl-6-oxo-2,3,4,6-tetrahydro-1H-pyrimido[1,6-a]pyrimidin-8-yl)oxy)methyl)-2-(pyrimidin-5-yloxy)benzonitrile]		≤ 1000	
Cc1ccc(Oc2ccc(COc3cc4n(c(=O)n3)CCCN4)cc2)cc1F [Example 108, 8-((4-(3-fluoro-4-methylphenoxy)benzyl)oxy)-3,4-dihydro-1H-pyrimido[1,6-a]pyrimidin-6(2H)-one]	≤ 10		
CN1CCCn2c1cc(OCCc1ccc(Oc3ccc(F)c(F)c3)cc1)nc2=O [Example 110, 8-(4-(3,4-difluorophenoxy)phenethoxy)-1-methyl-3,4-dihydro-1H-pyrimido[1,6-a]pyrimidin-6(2H)-one]	≤ 10		
O=c1nc(OCCc2ccc(F)c(F)c2)cc2n1CCCN2 [Example 111, 8-(3,4-difluorophenethoxy)-3,4-dihydro-1H-pyrimido[1,6-a]pyrimidin-6(2H)-one]		≤ 1000	
O=c1nc(OCCc2ccc(Cl)c(Cl)c2)cc2n1CCCN2 [Example 112, 8-(3,4-dichlorophenethoxy)-3,4-dihydro-1H-pyrimido[1,6-a]pyrimidin-6(2H)-one]		≤ 100	

Other lines, results leading:

IC50 [1, 2] [nM]	IC50 (Lp-PLA2 in human plasma) [nM]	IC50 [1, 3] [nM]	Structure (SMILES)
≤ 10	≤ 100		CN1CCCn2c1cc(OCc1ccc(Oc3ccc(F)c(F)c3)c(F)c1)nc2=O [Example 5, 8-((4-(3,4-difluorophenoxy)-3-fluorobenzyl)oxy)-1-methyl-3,4-dihydro-1H-pyrimido[1,6-a]pyrimidin-6(2H)-one]
≤ 1	≤ 100	0.794	CN1CCCn2c1cc(OCc1ccc(Oc3ccc(Cl)c(Cl)c3)cc1)nc2=O [Example 7, 8-((4-(3,4-dichlorophenoxy)benzyl)oxy)-1-methyl-3,4-dihydro-1H-pyrimido[1,6-a]pyrimidin-6(2H)-one]
	≤ 1000		CN1CCCn2c1cc(OCc1ccc(F)cc1)nc2=O [Example 8, 8-((4-fluorobenzyl)oxy)-1-methyl-3,4-dihydro-1H-pyrimido[1,6-a]pyrimidin-6(2H)-one]
≤ 10	≤ 100		CN1CCCn2c1cc(OCc1ccc(F)c(F)c1)nc2=O [Example 10, 8-((3,4-difluorobenzyl)oxy)-1-methyl-3,4-dihydro-1H-pyrimido[1,6-a]pyrimidin-6(2H)-one, trifluoroacetic acid salt]
	≤ 1000		CN1CCCn2c1cc(OCc1cccc(F)c1F)nc2=O [Example 12, 8-((2,3-difluorobenzyl)oxy)-1-methyl-3,4-dihydro-1H-pyrimido[1,6-a]pyrimidin-6(2H)-one]
≤ 10			CN1CCCn2c1cc(OCc1ccc(Oc3ccc(F)c(F)c3)cc1)nc2=O [Example 14, 8-((4-(3,4-difluorophenoxy)benzyl)oxy)-1-methyl-3,4-dihydro-1H-pyrimido[1,6-a]pyrimidin-6(2H)-one]
	≤ 1000		CN1CCCn2c1cc(OCc1ccc(F)cc1F)nc2=O [Example 20, 8-((2,4-difluorobenzyl)oxy)-1-methyl-3,4-dihydro-1H-pyrimido[1,6-a]pyrimidin-6(2H)-one]
	≤ 100		CN1CCCn2c1cc(OCc1cccc(C#N)c1)nc2=O [Example 27, 3-(((1-methyl-6-oxo-2,3,4,6-tetrahydro-1H-pyrimido[1,6-a]pyrimidin-8-yl)oxy)methyl)benzonitrile]
	≤ 1000		CN1CCCn2c1cc(OCc1cc(F)cc(F)c1)nc2=O [Example 31, 8-((3,5-difluorobenzyl)oxy)-1-methyl-3,4-dihydro-1H-pyrimido[1,6-a]pyrimidin-6(2H)-one]
	≤ 100		CN1CCCn2c1cc(OCc1cc(F)cc(C#N)c1)nc2=O [Example 33, 3-fluoro-5-(((1-methyl-6-oxo-2,3,4,6-tetrahydro-1H-pyrimido[1,6-a]pyrimidin-8-yl)oxy)methyl)benzonitrile]
	≤ 100		CN1CCCn2c1cc(OCc1cccc(F)c1)nc2=O [Example 37, 8-((3-fluorobenzyl)oxy)-1-methyl-3,4-dihydro-1H-pyrimido[1,6-a]pyrimidin-6(2H)-one]
	≤ 1000		CN1CCCn2c1cc(SCc1ccc(F)cc1)nc2=O [Example 66, 8-(4-Fluoro-benzylsulfanyl)-1-methyl-1,2,3,4-tetrahydro-pyrimido[1,6-a]pyrimidin-6-one]
